Assay results published in patent US20210338846A1, “COMPETITIVE PROSTATE-SPECIFIC MEMBRANE ANTIGEN (PSMA) BINDING AGENTS FOR REDUCTION OF NON-TARGET ORGAN UPTAKE OF RADIOLABELED PSMA INHIBITORS FOR PSMA POSITIVE TUMOR IMAGING AND RADIOPHARMACEUTICAL THERAPY” (The Johns Hopkins University, priority 2018, published 2021).
Where two headings read alike, the source gives them in different places.

Columns and labels:
PSMA+PiP tumors = conditions: cited from earlier work; for renal uptake (in words) / uptake in PSMA+ PiP tumors (in words): radiolabeled version
PSMA = PSMA (Homo sapiens, UniProt Q04609); conditions: read-out: Ki (PSMA inhibition); cited from earlier work
[1] = system: PSMA+ PC-3 PiP and PSMA− PC-3 flu tumors; assay: Biodistribution of [177Lu]VK-03-27 without and with co-injection of competing inhibitor VK-03-27; assay type: in vivo, mice; conditions: for Biodistribution: Blood / Biodistribution: Flu tumor / Biodistribution: Lacrimal Glands / Biodistribution: PiP tumor / Biodistribution: Salivary gland / Biodistribution: kidneys / Biodistribution: spleen / Biodistribution: stomach: 2 Hour
[2] = system: PSMA+ PC-3 PiP and PSMA− PC-3 flu tumors; conditions: for Biodistribution: Blood / Biodistribution: Flu tumor / Biodistribution: Lacrimal gland / Biodistribution: PiP tumor / Biodistribution: Salivary gland / Biodistribution: kidneys / Biodistribution: spleen / Biodistribution: stomach: without competitive inhibitor
[3] = system: PSMA+ PC-3 PiP and PSMA− PC-3 flu tumors; assay: Biodistribution of [177Lu]VK-I-45 without and with co-injection of competing inhibitor [Lu]VK-I-45; assay type: in vivo, mice; conditions: 2 Hour
From the text: VK-01-45 and its Lu-177 complex was reported in international PCT patent application publication no. WO 2017/165473 A, to Ray et al., which is incorporated herein by reference in its entirety. […] This approach can be applied to all compounds in WO 2017/165473 A1, to Ray et al.

[4] = mouse treated with 1.5 MBq; from Kiess et al., 2016; cited from earlier work
[5] = co-injection 0.1 nmole [Lu]VK-I-45
[6] = co-injection 0.5 nmole [Lu]VK-I-45
[7] = co-injection 1.0 nmole [Lu]VK-I-45
[8] = co-injection 5.0 nmole [Lu]VK-I-45

Chain of PSMA (Q04609 whole entry): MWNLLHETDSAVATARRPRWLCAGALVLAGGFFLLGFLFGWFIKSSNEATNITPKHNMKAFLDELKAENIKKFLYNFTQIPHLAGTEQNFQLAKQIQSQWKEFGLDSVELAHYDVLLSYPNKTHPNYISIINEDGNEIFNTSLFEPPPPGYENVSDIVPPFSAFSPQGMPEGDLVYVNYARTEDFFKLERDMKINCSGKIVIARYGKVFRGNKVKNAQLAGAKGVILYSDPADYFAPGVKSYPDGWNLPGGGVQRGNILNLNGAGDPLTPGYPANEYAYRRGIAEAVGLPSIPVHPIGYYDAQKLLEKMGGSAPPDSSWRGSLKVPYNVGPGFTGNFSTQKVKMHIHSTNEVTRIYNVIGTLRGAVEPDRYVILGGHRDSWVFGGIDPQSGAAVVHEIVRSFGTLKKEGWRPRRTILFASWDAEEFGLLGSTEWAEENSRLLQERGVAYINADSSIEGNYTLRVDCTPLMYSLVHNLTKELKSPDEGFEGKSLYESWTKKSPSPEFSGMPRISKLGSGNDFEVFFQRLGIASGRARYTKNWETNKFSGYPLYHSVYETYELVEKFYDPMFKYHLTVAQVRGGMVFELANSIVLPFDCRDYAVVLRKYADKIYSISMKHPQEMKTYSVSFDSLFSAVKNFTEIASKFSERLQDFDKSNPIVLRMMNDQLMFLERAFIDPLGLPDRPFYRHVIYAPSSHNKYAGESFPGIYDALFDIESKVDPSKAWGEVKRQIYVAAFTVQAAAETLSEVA

O=C(O)CCC(OC(=O)NC(CCCCNC(=O)c1ccc(I)cc1F)C(=O)O)C(=O)O (stereo not drawn) [Compound 24]
renal uptake (in words) (PSMA+PiP tumors): high initial renal uptake that decreases over time
uptake in PSMA+ PiP tumors (in words) (PSMA+PiP tumors): high uptake
Ki (PSMA): 0.2 nM

O=C(O)CCC(OC(=O)NC(CCCCNC(=O)c1ccc(Br)cc1F)C(=O)O)C(=O)O (stereo not drawn) [Compound 25]
renal uptake (in words) (PSMA+PiP tumors): high initial renal uptake that decreases over time
uptake in PSMA+ PiP tumors (in words) (PSMA+PiP tumors): high uptake
Ki (PSMA): 0.1 nM

O=C(O)CC[C@H](NC(=O)N[C@@H](CCC(=O)NCCc1ccc(I)cc1)C(=O)O)C(=O)O [HS-549]
renal uptake (in words) (PSMA+PiP tumors): high initial kidney uptake
uptake in PSMA+ PiP tumors (in words) (PSMA+PiP tumors): high PSMA+Pip tumor uptake

O=C(O)CC[C@H](NC(=O)N[C@@H](CCCCN(Cc1ccc(Br)cc1)C(=O)CCCCNC(=O)CCC(C(=O)O)N1CCN(CC(=O)O)CCN(CC(=O)O)CCN(CC(=O)O)CC1)C(=O)O)C(=O)O (stereo partly drawn) [VK-03-27]
effect of competing inhibitor on uptake of [177Lu]VK-03-27 ([1]; VK-03-27 (no Lu complex) as the CI): reduces the uptake in kidneys, salivary glands and Lacrimal glands

O=C(O)CC[C@H](NC(=O)N[C@@H](CCCCNC(=O)c1ccc(I)cc1)C(=O)O)C(=O)O [YC-I-27]
uptake and retention in kidneys (PSMA+PiP tumors; radiolabeled form, out to two days post-injection): > 100 % ID/g
uptake in PSMA+ PiP tumors (in words) (PSMA+PiP tumors): high and prolonged uptake

O=C([O-])CN1CCN(CC(=O)[O-])CCN(C(CCC(=O)NCCCCC(=O)N(CCCC[C@H](NC(=O)N[C@@H](CCC(=O)O)C(=O)O)C(=O)O)Cc2ccc(Br)cc2)C(=O)O)CCN(CC(=O)[O-])CC1.[177Lu+3] (stereo partly drawn) [[^177Lu]VK-03-27]
Biodistribution: Blood ([1]; No CI): 0.43 ± 0.6 % injected dose/gram
Biodistribution: Flu tumor ([1]; No CI): 0.4 ± 0.02 % injected dose/gram
Biodistribution: Lacrimal Glands ([1]; No CI): 1.06 ± 0.37 % injected dose/gram
Biodistribution: PiP tumor ([1]; No CI): 55 ± 12 % injected dose/gram
Biodistribution: Salivary gland ([1]; No CI): 1.2 ± 0.25 % injected dose/gram
Biodistribution: kidneys ([1]; No CI): 140 ± 21 % injected dose/gram
Biodistribution: spleen ([1]; No CI): 8.0 ± 2.8 % injected dose/gram
Biodistribution: stomach ([1]; No CI): 0.44 ± 0.6 % injected dose/gram
Biodistribution: Blood ([1]; co-injection 2 nmole VK-03-27): 0.23 ± 0.5 % injected dose/gram
Biodistribution: Flu tumor ([1]; co-injection 2 nmole VK-03-27): 0.32 ± 0.05 % injected dose/gram
Biodistribution: Lacrimal Glands ([1]; co-injection 2 nmole VK-03-27): 0.29 ± 0.08 % injected dose/gram
Biodistribution: PiP tumor ([1]; co-injection 2 nmole VK-03-27): 37 ± 8 % injected dose/gram
Biodistribution: Salivary gland ([1]; co-injection 2 nmole VK-03-27): 0.24 ± 0.04 % injected dose/gram
Biodistribution: kidneys ([1]; co-injection 2 nmole VK-03-27): 10.6 ± 0.6 % injected dose/gram
Biodistribution: spleen ([1]; co-injection 2 nmole VK-03-27): 0.8 ± 0.17 % injected dose/gram
Biodistribution: stomach ([1]; co-injection 2 nmole VK-03-27): 0.23 ± 0.09 % injected dose/gram
Biodistribution: Blood ([1]; co-injection 20 nmole VK-03-27): 0.25 ± 0.14 % injected dose/gram
Biodistribution: Flu tumor ([1]; co-injection 20 nmole VK-03-27): 0.27 ± 0.05 % injected dose/gram
Biodistribution: Lacrimal Glands ([1]; co-injection 20 nmole VK-03-27): 0.26 ± 0.05 % injected dose/gram
Biodistribution: PiP tumor ([1]; co-injection 20 nmole VK-03-27): 26 ± 4 % injected dose/gram
Biodistribution: Salivary gland ([1]; co-injection 20 nmole VK-03-27): 0.16 ± 0.04 % injected dose/gram
Biodistribution: kidneys ([1]; co-injection 20 nmole VK-03-27): 3.5 ± 0.56 % injected dose/gram
Biodistribution: spleen ([1]; co-injection 20 nmole VK-03-27): 0.39 ± 0.18 % injected dose/gram
Biodistribution: stomach ([1]; co-injection 20 nmole VK-03-27): 0.45 ± 0.35 % injected dose/gram
Biodistribution: Blood ([1]; co-injection 40 nmole VK-03-27): 0.16 ± 0.03 % injected dose/gram
Biodistribution: Flu tumor ([1]; co-injection 40 nmole VK-03-27): 0.25 ± 0.05 % injected dose/gram
Biodistribution: Lacrimal Glands ([1]; co-injection 40 nmole VK-03-27): 0.26 ± 0.11 % injected dose/gram
Biodistribution: PiP tumor ([1]; co-injection 40 nmole VK-03-27): 18 ± 3 % injected dose/gram
Biodistribution: Salivary gland ([1]; co-injection 40 nmole VK-03-27): 0.25 ± 0.21 % injected dose/gram
Biodistribution: kidneys ([1]; co-injection 40 nmole VK-03-27): 2.15 ± 0.1 % injected dose/gram
Biodistribution: spleen ([1]; co-injection 40 nmole VK-03-27): 0.21 ± 0.1 % injected dose/gram
Biodistribution: stomach ([1]; co-injection 40 nmole VK-03-27): 0.42 ± 0.21 % injected dose/gram
Biodistribution: Blood ([2]; 2 Hour): 1.2 ± 1.7 % injected dose/gram
Biodistribution: Flu tumor ([2]; 2 Hour): 5.8 ± 9.6 % injected dose/gram
Biodistribution: Lacrimal gland ([2]; 2 Hour): 5.8 ± 9.6 % injected dose/gram
Biodistribution: PiP tumor ([2]; 2 Hour): 50 ± 14 % injected dose/gram
Biodistribution: Salivary gland ([2]; 2 Hour): 3.4 ± 4.4 % injected dose/gram
Biodistribution: kidneys ([2]; 2 Hour): 150 ± 32 % injected dose/gram
Biodistribution: spleen ([2]; 2 Hour): 7.4 ± 3.0 % injected dose/gram
Biodistribution: stomach ([2]; 2 Hour): 0.66 ± 0.75 % injected dose/gram
Biodistribution: Blood ([2]; 8 Hour): 0.06 ± 0.02 % injected dose/gram
Biodistribution: Flu tumor ([2]; 8 Hour): 0.25 ± 0.05 % injected dose/gram
Biodistribution: Lacrimal gland ([2]; 8 Hour): 0.25 ± 0.05 % injected dose/gram
Biodistribution: PiP tumor ([2]; 8 Hour): 41 ± 9 % injected dose/gram
Biodistribution: Salivary gland ([2]; 8 Hour): 0.34 ± 0.18 % injected dose/gram
Biodistribution: kidneys ([2]; 8 Hour): 52 ± 18 % injected dose/gram
Biodistribution: spleen ([2]; 8 Hour): 1.2 ± 0.6 % injected dose/gram
Biodistribution: stomach ([2]; 8 Hour): 0.32 ± 0.31 % injected dose/gram
Biodistribution: Blood ([2]; 24 Hour): 0.03 ± 0.01 % injected dose/gram
Biodistribution: Flu tumor ([2]; 24 Hour): 0.12 ± 0.02 % injected dose/gram
Biodistribution: Lacrimal gland ([2]; 24 Hour): 0.12 ± 0.02 % injected dose/gram
Biodistribution: PiP tumor ([2]; 24 Hour): 49 ± 7 % injected dose/gram
Biodistribution: Salivary gland ([2]; 24 Hour): 0.16 ± 0.06 % injected dose/gram
Biodistribution: kidneys ([2]; 24 Hour): 5.9 ± 2.7 % injected dose/gram
Biodistribution: spleen ([2]; 24 Hour): 0.28 ± 0.13 % injected dose/gram
Biodistribution: stomach ([2]; 24 Hour): 0.14 ± 0.03 % injected dose/gram
PSMA+ PiP tumor uptake (in words) ([2]; Table 7): high PSMA+PipTumor uptake
renal uptake (in words) ([2]; Table 7): very high early renal uptake

O=C([O-])CN1CCN(CC(=O)[O-])CCN(CC(=O)NCCCCC(=O)N(CCCC[C@H](NC(=O)N[C@@H](CCC(=O)O)C(=O)O)C(=O)O)Cc2ccc(Br)cc2)CCN(CC(=O)[O-])CC1.[177Lu+3] [[^177Lu]VK-I-45]
Biodistribution: Blood ([3]; No CI): 0.1 ± 0.04 % injected dose/gram
Biodistribution: Flu tumor ([3]; No CI): 0.3 ± 0.06 % injected dose/gram
Biodistribution: PiP tumor ([3]; No CI): 39 ± 14 % injected dose/gram
Biodistribution: Salivary gland ([3]; No CI): 0.16 ± 0.07 % injected dose/gram
Biodistribution: kidneys ([3]; No CI): 35 ± 17 % injected dose/gram
Biodistribution: spleen ([3]; No CI): 0.7 ± 0.2 % injected dose/gram
Biodistribution: stomach ([3]; No CI): 0.1 ± 0.04 % injected dose/gram
Biodistribution: Blood [3, 5]: 0.12 ± 0.02 % injected dose/gram
Biodistribution: Flu tumor [3, 5]: 0.4 ± 0.07 % injected dose/gram
Biodistribution: PiP tumor [3, 5]: 38 ± 4 % injected dose/gram
Biodistribution: Salivary gland [3, 5]: 0.16 ± 0.03 % injected dose/gram
Biodistribution: kidneys [3, 5]: 17 ± 11 % injected dose/gram
Biodistribution: spleen [3, 5]: 0.65 ± 0.1 % injected dose/gram
Biodistribution: stomach [3, 5]: 0.2 ± 0.08 % injected dose/gram
Biodistribution: Blood [3, 6]: 0.11 ± 0.04 % injected dose/gram
Biodistribution: Flu tumor [3, 6]: 0.35 ± 0.07 % injected dose/gram
Biodistribution: PiP tumor [3, 6]: 35 ± 8 % injected dose/gram
Biodistribution: Salivary gland [3, 6]: 0.12 ± 0.02 % injected dose/gram
Biodistribution: kidneys [3, 6]: 4.8 ± 1.4 % injected dose/gram
Biodistribution: spleen [3, 6]: 0.32 ± 0.07 % injected dose/gram
Biodistribution: stomach [3, 6]: 0.09 ± 0.02 % injected dose/gram
Biodistribution: Blood [3, 7]: 0.07 ± 0.02 % injected dose/gram
Biodistribution: Flu tumor [3, 7]: 0.2 ± 0.03 % injected dose/gram
Biodistribution: PiP tumor [3, 7]: 20 ± 1.5 % injected dose/gram
Biodistribution: Salivary gland [3, 7]: 0.07 ± 0.01 % injected dose/gram
Biodistribution: kidneys [3, 7]: 1.75 ± 0.32 % injected dose/gram
Biodistribution: spleen [3, 7]: 0.15 ± 0.02 % injected dose/gram
Biodistribution: stomach [3, 7]: 0.13 ± 0.08 % injected dose/gram
Biodistribution: Blood [3, 8]: 0.8 ± 0.04 % injected dose/gram
Biodistribution: Flu tumor [3, 8]: 0.36 ± 0.14 % injected dose/gram
Biodistribution: PiP tumor [3, 8]: 17.3 ± 1.9 % injected dose/gram
Biodistribution: Salivary gland [3, 8]: 0.11 ± 0.04 % injected dose/gram
Biodistribution: kidneys [3, 8]: 1.35 ± 0.44 % injected dose/gram
Biodistribution: spleen [3, 8]: 0.14 ± 0.06 % injected dose/gram
Biodistribution: stomach [3, 8]: 0.2 ± 0.18 % injected dose/gram

O=C(O)CC[C@H](NC(=O)NC(CCCCNC(=O)c1ccc([211At])cc1)C(=O)O)C(=O)O (stereo partly drawn) [[^211At]DCIBzL, (2S)-2-(3-(1-Carboxy-5-(4-[^211At]astatobenzamido)pentyl)ureido)-pentanedioic acid]
renal histopathology [4]: severe renal damage
